Source: ChEMBL document CHEMBL4665750, “Structure-Activity Relationship Study of Majusculamides A and B and Their Analogues on Osteogenic Activity” (J Nat Prod, 2020)
Active and inactive are the calls of the source. No cut-off for these calls is given here.

Experiments:
[1] = tested on: MC3T3-E1; test: Osteogenic activity in mouse MC3T3-E1 cells assessed as mineralization at >= 30 uM after 6 days by Alizarin Red S staining-based method; format: functional, cell-based; conditions: dose microM >=30, time 6.0 day
[2] = tested on: MC3T3-E1; test: Activation of alkaline phosphatase secretion in mouse MC3T3-E1 cells at >= 30 uM using 4-nitrophenyl phosphate as substrate after 6 days; format: cell-based; conditions: dose microM >=30, time 6.0 day
[3] = tested on: MC3T3-E1; test: Cytotoxicity against mouse MC3T3-E1 cells assessed as reduction in cell viability at 30 uM after 6 days by MTT assay; format: cell-based; conditions: mc3t3-e1, 144 h, time 6 day
[4] = tested on: MC3T3-E1; test: Osteogenic activity in mouse MC3T3-E1 cells assessed as mineralization at 7.5 uM after 6 days by Alizarin Red S staining-based method; format: functional, cell-based; conditions: time 6.0 day
[5] = tested on: MC3T3-E1; test: Osteogenic activity in mouse MC3T3-E1 cells assessed as mineralization at 15 uM after 6 days by Alizarin Red S staining-based method; format: functional, cell-based; conditions: time 6.0 day
[6] = tested on: MC3T3-E1; test: Osteogenic activity in mouse MC3T3-E1 cells assessed as mineralization at 30 uM after 6 days by Alizarin Red S staining-based method; format: functional, cell-based; conditions: time 6.0 day
[7] = tested on: MC3T3-E1; test: Cytotoxicity against mouse MC3T3-E1 cells assessed as reduction in cell viability at >= 30 uM after 6 days by MTT assay; format: cell-based; conditions: mc3t3-e1, 144 h, time 6 day
[8] = tested on: MC3T3-E1; test: Activation of alkaline phosphatase secretion in mouse MC3T3-E1 cells at 30 uM using 4-nitrophenyl phosphate as substrate after 6 days; format: cell-based; conditions: time 6.0 day
[9] = tested on: MC3T3-E1; test: Activation of alkaline phosphatase secretion in mouse MC3T3-E1 cells at 15 uM using 4-nitrophenyl phosphate as substrate after 6 days; format: cell-based; conditions: filed as activator, time 6.0 day

What does the source list for `CCCCCCCC(=O)C(C)(C)C(=O)N(C)[C@H](Cc1ccc(OC)cc1)C(=O)N(C)[C@H](C(N)=O)C(C)C`?
Activity [1]: inactive; Activity ([2]; filed as activator): Active

How did the Activity [1] turn out when `CCCCCCCC(=O)CC(=O)N(C)[C@H](Cc1ccc(OC)cc1)C(=O)N(C)[C@H](C(N)=O)C(C)C` was run?
Its Activity is “inactive”.

And the Activity ([2]; filed as activator)?
The Activity was “Active”.

For `CCCCCCCCCC(=O)N(C)[C@H](Cc1ccc(OC)cc1)C(=O)N(C)[C@H](C(N)=O)C(C)C`, which Activity [3] is on record?
Its Activity is “Toxic”.

And the Activity [1]?
The Activity was “Active”.

What about the Activity ([2]; filed as activator) of the same compound?
The Activity was “Active”.

With `CCCCCCCC(=O)[C@@H](C)C(=O)N(C)[C@H](Cc1ccccc1)C(=O)N(C)[C@H](C(N)=O)C(C)C` as the compound, how does the Activity [1] read?
Its Activity is “inactive”.

And the Activity ([2]; filed as activator)?
Its Activity is “Active”.

What does the source list for `CCCCCCCC(=O)[C@@H](C)C(=O)N(C)[C@H](Cc1ccc(OC)cc1)C(=O)N(C)[C@@H](C)C(N)=O`?
Activity [4]: Active; Activity [5]: Active; Activity [6]: inactive; Activity ([2]; filed as activator): Active

Which results are given for `CCCCCCCC(=O)[C@@H](C)C(=O)N(C)[C@H](Cc1ccc(OC)cc1)C(=O)N(C)[C@H](C(N)=O)C(C)C`?
Activity [7]: Non-Toxic; Activity [1]: Active; Activity ([2]; filed as activator): Active

Which Activity [6] does the source give for `CCCCCCCC[C@H](C)C(=O)N(C)[C@H](Cc1ccc(OC)cc1)C(=O)N(C)[C@H](C(N)=O)C(C)C` here?
The Activity was “Active”.

What about the Activity [1] of the same compound?
Its Activity is “inactive”.

What about the Activity [2] of the same compound?
Its Activity is “inactive”.

Which results are given for `CCCCCCCC(=O)[C@H](C)C(=O)N(C)[C@H](Cc1ccc(OC)cc1)C(=O)N(C)[C@H](C(N)=O)C(C)C`?
Activity [7]: Non-Toxic; Activity [1]: Active; Activity ([2]; filed as activator): Active

Which Activity [6] does the source give for `CCCCCCC[C@@H](O)[C@H](C)C(=O)N(C)[C@H](Cc1ccc(OC)cc1)C(=O)N(C)[C@H](C(N)=O)C(C)C` here?
Its Activity is “Active”.

And the Activity ([8]; filed as activator)?
Its Activity is “Active”.

With `CCCCCC(=O)[C@@H](C)C(=O)N(C)[C@H](Cc1ccc(OC)cc1)C(=O)N(C)[C@H](C(N)=O)C(C)C` as the compound, how does the Activity [6] read?
The Activity was “inactive”.

And the Activity ([8]; filed as activator)?
The Activity was “Active”.

Which Activity [6] does the source give for `CCCCCCCC(=O)[C@@H](C)C(=O)N(C)[C@H](Cc1cc(Cl)c(OC)c(Cl)c1)C(=O)N(C)[C@H](C(N)=O)C(C)C` here?
The Activity was “inactive”.

And the Activity [3]?
The Activity was “Toxic”.

What about the Activity [8] of the same compound?
The Activity was “inactive”.

What does the source list for `CCCCCCCC[C@@H](C)C(=O)N(C)[C@H](Cc1ccc(OC)cc1)C(=O)N(C)[C@H](C(N)=O)C(C)C`?
Activity [6]: Active; Activity [1]: inactive; Activity [2]: inactive

What does the source list for `CCCCCCC[C@H](O)[C@@H](C)C(=O)N(C)[C@H](Cc1ccc(OC)cc1)C(=O)N(C)[C@H](C(N)=O)C(C)C`?
Activity [6]: inactive; Activity ([8]; filed as activator): Active

For `CCCC(=O)[C@@H](C)C(=O)N(C)[C@H](Cc1ccc(OC)cc1)C(=O)N(C)[C@H](C(N)=O)C(C)C`, which Activity [6] is on record?
Its Activity is “inactive”.

What about the Activity ([8]; filed as activator) of the same compound?
The Activity was “Active”.

Which results are given for `CCCCCCCCCC(=O)[C@@H](C)C(=O)N(C)[C@H](Cc1ccc(OC)cc1)C(=O)N(C)[C@H](C(N)=O)C(C)C`?
Activity [9]: Active; Activity [5]: inactive; Activity [3]: Toxic
